# Experimental data as given in PubChem BioAssay AID1671325.
# Target: Mitogen-activated protein kinase 11 (Homo sapiens) (UniProt Q15759)
# Test: PubChem AID 1671325
# Conditions: Z'-LYTE FRET kinase activity, recombinant MAPK11
# Mitogen-activated protein kinase 11 (Homo sapiens), sequence (Q15759 whole entry, looked up): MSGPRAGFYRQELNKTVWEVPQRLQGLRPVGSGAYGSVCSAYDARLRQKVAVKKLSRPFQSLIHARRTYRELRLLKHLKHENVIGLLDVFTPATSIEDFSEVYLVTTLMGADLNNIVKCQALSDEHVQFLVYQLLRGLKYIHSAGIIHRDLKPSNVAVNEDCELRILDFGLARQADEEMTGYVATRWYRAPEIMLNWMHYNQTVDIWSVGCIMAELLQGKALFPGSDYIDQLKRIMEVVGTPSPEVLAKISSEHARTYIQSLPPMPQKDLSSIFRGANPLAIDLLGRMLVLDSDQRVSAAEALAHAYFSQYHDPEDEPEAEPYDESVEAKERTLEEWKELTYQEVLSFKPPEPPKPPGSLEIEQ
smiles,measurement,value
CC(C)(C)n1nc(-c2ccc(Cl)cc2)c2c(N)ncnc21,IC50,3.53 µM
